Assay results reported in patent US9580390B2, “Indazole compounds as kinase inhibitors and method of treating cancer with same” (University Health Network, priority 2011, dated 2017).
Where two headings read alike, the source gives them in different places.

Columns and labels:
[1] = system: ovarian cancer cells (PA-1); experiment: Cancer cell line growth inhibition (SRB assay); type: cell-based; conditions: read-out: Cancer Cell Line GI50 Range PA-1
human TTK = target: T1, human TTK (Homo sapiens, UniProt P33981); experiment: TTK inhibition assay (indirect ELISA); type: biochemical; conditions: read-out: TTK IC50 Range
T1 construct: amino terminal GST fusion of full length human TTK; purchased Invitrogen
T1 sequence (P33981 1-857): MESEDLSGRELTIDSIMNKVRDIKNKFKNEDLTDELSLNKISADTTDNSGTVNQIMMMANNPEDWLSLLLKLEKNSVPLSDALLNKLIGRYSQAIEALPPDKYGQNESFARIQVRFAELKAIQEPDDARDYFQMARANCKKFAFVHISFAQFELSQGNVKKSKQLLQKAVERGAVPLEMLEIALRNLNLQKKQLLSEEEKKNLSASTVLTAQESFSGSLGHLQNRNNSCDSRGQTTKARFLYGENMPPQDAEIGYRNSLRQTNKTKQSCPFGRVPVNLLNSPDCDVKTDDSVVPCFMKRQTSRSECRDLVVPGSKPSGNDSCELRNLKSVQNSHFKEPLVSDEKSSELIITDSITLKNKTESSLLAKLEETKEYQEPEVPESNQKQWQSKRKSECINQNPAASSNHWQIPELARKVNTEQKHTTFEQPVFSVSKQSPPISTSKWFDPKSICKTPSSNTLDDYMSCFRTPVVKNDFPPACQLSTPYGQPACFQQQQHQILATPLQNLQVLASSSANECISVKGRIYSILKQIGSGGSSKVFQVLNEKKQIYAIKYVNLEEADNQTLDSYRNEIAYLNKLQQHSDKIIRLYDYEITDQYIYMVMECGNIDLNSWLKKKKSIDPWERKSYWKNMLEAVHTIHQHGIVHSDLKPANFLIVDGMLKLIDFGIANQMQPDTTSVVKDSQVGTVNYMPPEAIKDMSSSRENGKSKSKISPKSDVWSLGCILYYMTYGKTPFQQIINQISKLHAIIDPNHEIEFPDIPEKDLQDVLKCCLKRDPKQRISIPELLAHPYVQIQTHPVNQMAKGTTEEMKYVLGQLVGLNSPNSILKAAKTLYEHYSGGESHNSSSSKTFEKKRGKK
Method: Active TTK was purchased from Invitrogen as an amino terminal GST fusion of full length human TTK. Amino terminal 6 histidine, sumo tagged human TTK (residues 1-275) was expressed in E. coli, and purified to >95% homogeneity by Ni^2+ agarose, gel filtration, and ion exchange chromatography.
TTK activity was measured using an indirect ELISA detection system. GST-TTK (0.68 nM) was incubated in the presence of 16 μM ATP (Sigma cat# A7699), 50 mM Hepes pH 7.2, 1 mM EGTA, 10 mM MgCl2, and 0.1% Pluronic in a 96 well microtitre plate pre-coated with amino terminal 6 histidine, sumo tagged TTK (amino acid residues 1-275). The reaction was allowed to proceed for 30 minutes, followed by 5 washes of the plate with Wash Buffer (phosphate buffered saline supplemented with 0.2% Tween 20), and incubation for 30 minutes with a 1:3000 dilution of primary antibody (Cell Signaling cat# 9381). The plate was washed 5 times with Wash Buffer, incubated for 30 minutes in the presence of secondary antibody coupled to horse radish peroxidase (BioRad cat# 1721019, 1:3000 concentration), washed an additional 5 times with Wash Buffer, and incubated in the presence of TMB substrate (Sigma cat# T0440). The colourimetric reaction was allowed to continue for 5 minutes, followed by addition of stop solution (0.5 N sulphuric acid), and quantified by detection at 450 nm with either a monochromatic or filter based plate reader (Molecular Devices M5 or Beckman DTX880, respectively).
Compounds were pre-incubated in the presence of enzyme for 5 minutes prior to addition of ATP and the activity remaining quantified using the above described activity assay. The % Inhibition of a compound was determined using the following formula: % Inhibition=100×(1−(experimental value−background value)/(high activity control−background value)). The IC50 value was determined using a non-linear 4 point logistic curve fit (XLfit4, IDBS) with the formula: (A+(B/(1+((x/C)^D)))), where A=background value, B=range, C=inflection point, D=curve fit parameter.

[2] = system: colon cancer cells (HCT116); experiment: Cancer cell line growth inhibition (SRB assay); type: cell-based; conditions: read-out: Cancer Cell Line GI50 Range HCT116
[3] = PA-1 ovarian cancer cells, SRB assay
[4] = Homo sapiens, HCT-116, HCT116 colon cancer cells, SRB assay

| Structure (SMILES) | GI50 ([1]; Homo sapiens, PA-1) | IC50 (human TTK) | GI50 ([2]; Homo sapiens, HCT-116) | GI50 ([1]; PA-1) | GI50 ([2]; HCT116) | GI50 [1, 3] | GI50 [2, 4] |
| --- | --- | --- | --- | --- | --- | --- | --- |
| CN1C2COCC1CC(Oc1ccc(-c3n[nH]c4ccc(C(=O)NC(c5ccccn5)C5CCCC5)cc34)cc1)C2 [Example A392, N-(cyclopentyl (pyridin-2-yl)methyl)-3-(4-(((1R,5S,7s)-9-methyl-3-oxa-9-azabicyclo [3.3.1]nonan-7-yl)oxy)phenyl)-1H-indazole-5-carboxamide] | < 100 nM | < 100 nM | < 100 nM |  |  |  |  |
| CC(C)C(NC(=O)c1ccc2[nH]nc(-c3ccc(OC4CC5COCC(C4)N5C)cc3)c2c1)c1ccccc1Cl [Example A393, N-(1-(2-chlorophenyl)-2-mcthylpropyl)-3-(4-(((1R,5S,7s)-9-methy]-3-oxa-9-azabicyclo[3.3.1]nonan-7-yl)oxy)phenyl)-1H-indazole-5-carboxamide] | < 100 nM | < 100 nM | < 100 nM |  |  |  |  |
| CC(C)C(NC(=O)c1ccc2[nH]nc(-c3ccc(OC4CC5CCC(C4)N5C)cc3)c2c1)c1ccccn1 (stereo not drawn) [Example A396, N-(2-methyl-1-(pyridin-2-yl)propyl)-3-(4-((8-methyl-8-azabicyclo [3.2.1]octan-3-yl)oxy)phenyl)-1H-indazole-5-carboxamide] |  | < 100 nM |  | < 100 nM | < 100 nM |  |  |
| CN1C2CCC1CC(Oc1ccc(-c3n[nH]c4ccc(C(=O)N[C@H](c5ccccn5)C5CC5)cc34)cc1)C2 (stereo partly drawn) [Example A397, N-((S)-cyclopropyl(pyridin-2-yl)methyl)-3-(4-((8-methyl-8-azabicyclo[3.2.1]octan-3-yl)oxy)phenyl)-1H-indazole-5-carboxamide] | < 100 nM | < 100 nM | < 100 nM |  |  |  |  |
| O=C(N[C@H](c1ccccc1)C1CC1)c1ccc2[nH]nc(-c3ccc(N4CCN(C5COC5)CC4)cc3)c2c1 [Example A399, (S)-N-(cyclopropyl(phenyl)methyl)-3-(4-(4-(oxetan-3-yl)piperazin-1-yl)phenyl)-1H-indazole-5-carboxamide] | 100 to 500 nM | < 100 nM | < 100 nM |  |  |  |  |
| O=C(N[C@H](c1ccccn1)C1CC1)c1ccc2[nH]nc(-c3ccc(N4CCN(C5COC5)CC4)cc3)c2c1 [Example A401, (S)-N-(cyclopropyl(pyridin-2-yl)methyl)-3-(4-(4-(oxetan-3-yl)piperazin-1-yl)phenyl)-1H-indazole-5-carboxamide] | < 100 nM | < 100 nM | < 100 nM |  |  |  |  |
| CCC(CNC(=O)c1ccc2[nH]nc(-c3ccc(N4CCOCC4)cc3)c2c1)c1ccccc1 (stereo not drawn) [Example A407, 3-(4-morpholinophenyl)-N-(2-phenylbutyl)-1H-indazole-5-carboxamide] | > 500 nM | < 100 nM | > 500 nM |  |  |  |  |
| O=C(NCC1(N2CCOCC2)CCCCC1)c1ccc2[nH]nc(-c3ccc(N4CCC(O)CC4)cc3)c2c1 [Example A427, 3-(4-(4-hydroxypiperidin-1-yl)phenyl)-N-((1-morpholinocyclohexyl)methyl)-1H-indazole-5-carboxamide] |  | < 100 nM |  |  |  | < 100 nM | < 100 nM |
| CN1CCC(Oc2ccc(-c3n[nH]c4ccc(C(=O)NCC5(N6CCOCC6)CCCC5)cc34)cc2)CC1 [Example A428, 3-(4-((1-methylpiperidin-4-yl)oxy)phenyl)-N-((1-morpholinocyclopentyl)methyl)-1H-indazole-5-carboxamide] |  | < 100 nM |  |  |  | 100 to 500 nM | 100 to 500 nM |
| CN1CCC(Oc2ccc(-c3n[nH]c4ccc(C(=O)NCC5(N6CCOCC6)CCCCCC5)cc34)cc2)CC1 [Example A429, 3-(4-((1-methylpiperidin-4-yl)oxy)phenyl)-N-((1-morpholinocycloheptyl)methyl)-1H-indazole-5-carboxamide] |  | < 100 nM |  |  |  | 100 to 500 nM | < 100 nM |
| CN1CCC(Oc2ccc(-c3n[nH]c4ccc(C(=O)NCC5(c6ccccc6)CC5(C)C)cc34)cc2)CC1 (stereo not drawn) [Example A431, N-((2,2-dimethyl-1-phenylcyclopropyl)methyl)-3-(4-((1-methylpiperidin-4-yl)oxy)phenyl)-1H-indazole-5-carboxamide] |  | < 100 nM |  |  |  | 100 to 500 nM | 100 to 500 nM |
| O=C(NCC1(N2CCOCC2)CCCCC1)c1ccc2[nH]nc(-c3ccc(OC4CCN(CCO)CC4)cc3)c2c1 [Example A432, 3-(4-((1-(2-hydroxyethyl)piperidin-4-yl)oxy)phenyl)-N-((1-morpholinocyclohexyl)methyl)-1H-indazole-5-carboxamide] | < 100 nM | < 100 nM | < 100 nM |  |  |  |  |
| O=C(NCC1(c2cccs2)CCOCC1)c1ccc2[nH]nc(-c3ccc(OC4CCN(C5COC5)CC4)cc3)c2c1 [Example A433, 3-(4-((1-(oxetan-3-yl)piperidin-4-yl)oxy)phenyl)-N-((4-(thiophen-2-yl)tetrahydro-2H-pyran-4-yl)methyl)-1H-indazole-5-carboxamide] | 100 to 500 nM | < 100 nM | 100 to 500 nM |  |  |  |  |
| O=C(NCC1(OC2CCCC2)CCCCC1)c1ccc2[nH]nc(-c3ccc(N4CCOCC4)cc3)c2c1 [Example A435, N-((1-(cyclopentyloxy)cyclohexyl)methyl)-3-(4-morpholinophenyl)-1H-indazole-5-carboxamide] | > 500 nM | < 100 nM | > 500 nM |  |  |  |  |
| O=C(NCC1(c2cccs2)CCOCC1)c1ccc2[nH]nc(-c3ccc(N4CCOCC4)cc3)c2c1 [Example A436, 3-(4-morpholinophenyl)-N-((4-(thiophen-2-yl)tetrahydro-2H-pyran-4-yl)methyl)-1H-indazole-5-carboxamide] | 100 to 500 nM | < 100 nM | 100 to 500 nM |  |  |  |  |
| CCC(CC)(CNC(=O)c1ccc2[nH]nc(-c3ccc(N4CCOCC4)cc3)c2c1)c1ccccc1 [Example A437, N-(2-ethyl-2-phenylbutyl)-3-(4-morpholinophenyl)-1H-indazole-5-carboxamide] | 100 to 500 nM | < 100 nM | 100 to 500 nM |  |  |  |  |
| C[C@@H]1CN(c2ccc(-c3n[nH]c4ccc(C(=O)NCC5(N6CCOCC6)CCCCC5)cc34)cc2)C[C@H](C)O1 [Example A454, 3-(4-((2S,6R)-2,6-dimethylmorpholino)phenyl)-N-((1-morpholinocyclohexyl)methyl)-1H-indazole-5-carboxamide] |  | < 100 nM |  |  |  | 100 to 500 nM | 100 to 500 nM |
| CN1CCC(Oc2ccc(-c3n[nH]c4ccc(C(=O)NCC5(N6CCOCC6)CCC(F)(F)CC5)cc34)cc2)CC1 [Example A458, N-((4,4-difluoro-1-morpholinocyclohexyl)methyl)-3-(4-((1-methylpiperidin-4-yl)oxy)phenyl)-1H-indazole-5-carboxamide] |  | < 100 nM |  |  |  | 100 to 500 nM | 100 to 500 nM |
| O=C(CC1(c2ccccc2)COC1)Nc1ccc2[nH]nc(-c3ccc(OC4CCN(C5COC5)CC4)cc3)c2c1 [Example A462, N-(3-(4-((1-(oxetan-3-yl)piperidin-4-yl)oxy)phenyl)-1H-indazol-5-yl)-2-(3-phenyloxetan-3-yl)acetamide] | > 500 nM | 100 to 500 nM | > 500 nM |  |  |  |  |
| CCC(CC)(CNC(=O)c1ccc2[nH]nc(-c3ccc(OC4CCN(C5COC5)CC4)cc3)c2c1)N1CCOCC1 [Example A466, N-(2-ethyl-2-morpholinobutyl)-3-(4-((1-(oxetan-3-yl)piperidin-4-yl)oxy)phenyl)-1H-indazole-5-carboxamide] | < 100 nM | < 100 nM | 100 to 500 nM |  |  |  |  |
| O=C(NCC1(c2ccccc2)CCCCC1)c1ccc2[nH]nc(-c3ccc(N4CCOCC4)cc3)c2c1 [Example A469, 3-(4-morpholinophenyl)-N-((1-phenylcyclohexyl)methyl)-1H-indazole-5-carboxamide] |  | < 100 nM |  |  |  | 100 to 500 nM | 100 to 500 nM |
| CN1CCC(Oc2ccc(-c3n[nH]c4ccc(C(=O)NCC5(c6ccccc6)CCCCC5)cc34)cc2)CC1 [Example A470, 3-(4-((1-methylpiperidin-4-yl)oxy)phenyl)-N-((1-phenylcyclohexyl)methyl)-1H-indazole-5-carboxamide] |  | < 100 nM |  |  |  | 100 to 500 nM | 100 to 500 nM |
| CN1CCC(Oc2ccc(-c3n[nH]c4ccc(C(=O)NCC5(c6ccccc6)CC5)cc34)cc2)CC1 [Example A471, 3-(4-((1-methylpiperidin-4-yl)oxy)phenyl)-N-((1-phenylcyclopropyl)methyl)-1H-indazole-5-carboxamide] |  | < 100 nM |  |  |  | 100 to 500 nM | 100 to 500 nM |
